In patent US10245328B2, “Gadolinium complex comprising DO3A-tranexamic acid conjugate” (KYUNGPOOK NATIONAL UNIVERSITY INDUSTRY-ACADEMIC COOPERATION …, priority 2014, dated 2019):

Experiments:
[1] = Relaxation rate measurement (R1, R2) in PBS and in PBS solution of HSA; format: physicochemical; conditions: 293K
Description: T1 measurement is carried out using an inversion recovery method at 1.5 T (64 MHz) in a variable inverse time (TI). MR images are obtained for 35 different TI values in a range of 50 to 1750 ms. A T1 relaxation time is obtained from a nonlinear least-squares fit of a signal strength measured at each TI value. For a T2 CPMG (Carr-Purcell-Meiboon-Gill) pulse sequence measurement, the measurement is adapted to a multi spin-echo measurement. 34 images are obtained at 34 different echo time (TE) values in a range of 10 to 1900 ms. The T2 relaxation time is obtained from a nonlinear least-squares fit of mean pixel values for multi spin-echo measurement at each echo time. Next, a relaxation rate (R1 and R2) is calculated as an inverse of a relaxation time per mM. The determined relaxation time (T1 and T2) and relaxation rate (R1 and R2) are subjected to an image processing to get a relaxation time map and relaxation rate respectively.
For comparison between the complexes 2a-e, there is no noticeable difference in R1's. The measurement is carried out for two different media, that is, PBS (pH=7.4) and PBS solution of HAS in order to indicate which blood-pool effect is expressed by the complexes 2a-e.

[2] = Isothermal titration calorimeter (ITC), binding of Gd^3+ to ligand; conditions: 25° C., pH = 4.5, read-out: Kd (dissociation constant)
Description: In order to quantify binding isotherms of paramagnetic metal ions Gd^3+ with a ligand solution, an ITC test is executed at a VP-ITC isothermal titration microcalorimeter (Microcal, USA). Data collection, analysis and plotting are executed with help of software package Origin, version 8.0 from Microcal. A sample cell has a 1.43 mL volume. The cell is filled with a water-soluble buffer solution of the above compound 1a-e ligand (0.2 mM). A water-soluble buffer solution of Gd^3+ (1.0 mM) is input into a 300 μL continuous agitated (300 rpm) syringe and 10 μL aliquots thereof is injected into the cell. At a 3-mins interval, the cell is delivered over 20 s. Data points are collected on a 2 s basis. The measurement is executed at 25° C. All titrations are executed three times to secure data consistency and solution stability. These titration isotherms are integrated to find out an enthalpy change at each injection. In order to fit well with two mathematically different sets of site models, the titration isotherms are analyzed. Via a calorie measurement, parameters including a binding constant (Ka), a change in enthalpy (ΔH), a stoichiometry of binding (N) are calculated. Next, a free energy (ΔG) and an entropy change (ΔS) are calculated using a following complexation equation: Mn++nL↔MLn:ΔG=−RT·InKa=ΔH-TΔS,
where, R indicates a universal gas constant; T is Kelvin temperature.

[3] = PBS solution of 0.67 mM HSA, 64 MHz

SMILES	Kd [2]	also measured
O=C([O-])CN1CCN(CC(=O)[O-])CCN([C@H](CO)[C@H](O)CO)CCN(CC(=O)[O-])CC1.[Gd+3] (racemic) [Gadovist, Gd-BT-DO3A, reference compound]		R1 ([1]; PBS pH 7.4, 64 MHz (1.5 T)): 4.38 ± 0.15 mM⁻¹ s⁻¹; R2 ([1]; PBS pH 7.4, 64 MHz (1.5 T)): 4.27 ± 0.30 mM⁻¹ s⁻¹; R1 in 0.67 mM HSA [1, 3]: 4.81 ± 0.17 mM⁻¹ s⁻¹; R2 in 0.67 mM HSA [1, 3]: 5.54 ± 0.24 mM⁻¹ s⁻¹
CCOC(=O)C1CCC(CNC(=O)CN2CCN(CC(=O)O)CCN(CC(=O)O)CCN(CC(=O)O)CC2)CC1 (centres unmarked) [1a]	19.3 µM	
O=C(O)CN1CCN(CC(=O)O)CCN(CC(=O)NCC2CCC(C(=O)O)CC2)CCN(CC(=O)O)CC1 (centres unmarked) [1b]	3.98 µM	
NCCNC(=O)C1CCC(CNC(=O)CN2CCN(CC(=O)O)CCN(CC(=O)O)CCN(CC(=O)O)CC2)CC1 (centres unmarked) [1c]	16.8 µM	
NC1CCC(NC(=O)CN2CCN(CC(=O)O)CCN(CC(=O)O)CCN(CC(=O)O)CC2)CC1 (centres unmarked) [1d]	29.3 µM	
